Data on two compounds can be found in ChEMBL document CHEMBL4823282, “Novel Broad-Spectrum Antimicrobial Peptide Derived from Anoplin and Its Activity on Bacterial Pneumonia in Mice” (J Med Chem, 2021).

Active and inactive are the calls of the source. The calls are words filed in the database; no cut-off is given here. Where a SMILES comes first, the peptide text is derived from it. Bridges are numbered along the chain shown (N, C = ends). [ ]: non-standard residue; d: D form. The star is where a group is joined. X1 = CC[C@H](C)CCCCC(=O)*; Dab = NCC[C@H](N)C(=O)O

Data set [1] concerns Cell membrane. As to the kind of experiment: Disruption of membrane integrity in Klebsiella pneumoniae ATCC 700603 assessed as membrane swelling at 1 times MIC incubated for 0.5 to 2 hrs by scanning electron microscopy. The note with it: Klebsiella pneumoniae 700603, time 0.5-2 hrs. It is filed as subcellular.
The subject of data set [2] is Klebsiella pneumoniae. The data set is described as follows: Antibacterial activity against Klebsiella pneumoniae ATCC 700603 incubated with 2000 ug/ml trypsin for 6 hrs followed by bacterial addition and measured after 18 hrs by CLSI based broth dilution method. The format is functional, organism-based. The note with it: dose 2000.0 µg/ml, time 23.0 hrs. A general note: Broth dilution looks for growth in wells or tubes with falling amounts of substance.

Data set [3] has as its system Klebsiella pneumoniae. As to the kind of experiment: Antibiofilm activity against Klebsiella pneumoniae ATCC 700603 at 2 to 4 times MIC incubated for 24 hrs by crystal violet staining based assay. The format is functional, organism-based.
For data set [4], the system named is Klebsiella pneumoniae. The data set is described as follows: Reduction in inflammatory cell infiltration in lung of BALB/C mouse infected with Klebsiella pneumoniae ATCC 700603 at 5 mg/kg, ip by hematoxylin and eosin staining based assay. The format is functional, organism-based.
The subject of data set [5] is Klebsiella pneumoniae. As to the kind of experiment: Antibacterial activity against Klebsiella pneumoniae ATCC 700603 incubated with 2000 ug/ml chymotrypsin for 6 hrs followed by bacterial addition and measured after 18 hrs by CLSI based broth dilution method. The format is functional, organism-based. The note with it: dose 2000.0 µg/ml, time 23.0 hrs.
Data set [6] in a line: Toxicity in BALB/C mouse infected with Klebsiella pneumoniae ATCC 700603 assessed as change in liver color at 5 mg/kg, ip by hematoxylin and eosin staining based assay. It is filed as organism-based. The note with it: in vivo.
Data set [7] deals with Cell membrane. As to the kind of experiment: Induction of outer membrane permeabilization in Klebsiella pneumoniae ATCC 700603 at 4MIC measured within 20 mins by N-phenylnaphthylamine dye based fluorescent method. It is filed as subcellular. The note with it: Klebsiella pneumoniae 700603.
Data set [8] deals with Staphylococcus aureus. As to the kind of experiment: Drug localization in surface of Staphylococcus aureus ATCC 25923 at 2 times MIC incubated for 30 mins using ACD-labeled compound by PI-staining based laser scanning confocal microscopic analysis. The format is functional, organism-based.
For data set [9], the system named is Cell membrane. The data set is described as follows: Induction of outer membrane permeabilization in Klebsiella pneumoniae ATCC 700603 at 2 to 4 MIC by N-phenylnaphthylamine dye based fluorescent method. The format is subcellular. The note with it: Klebsiella pneumoniae 700603, 2 to 4 M.
The subject of data set [10] is Klebsiella pneumoniae. The data set is described as follows: Antibacterial activity against Klebsiella pneumoniae ATCC 700603 infected in BALB/C mouse assessed as reduction in bacterial load at 5 to 10 mg/kg, ip by hematoxylin and eosin staining based assay. It is filed as functional, organism-based. The note with it: dose 5-10 mg/kg.
Data set [11] concerns Klebsiella pneumoniae. As to the kind of experiment: Disruption of membrane integrity in Klebsiella pneumoniae ATCC 700603 assessed as membrane creeping at 1 times MIC incubated for 0.5 to 2 hrs by scanning electron microscopy. It is filed as functional, organism-based. The note with it: time 0.5-2 hrs.
Another data set concerns Lipopolysaccharide (LPS). As to the kind of experiment: Binding affinity to LPS (unknown origin) assessed as bacterial killing at 2 times MIC preincubated for 1 hr followed by Escherichia coli ATCC 25922 addition and measured after 2 hrs by absorbance method relative to polymyxin B. The note with it: time 3.0 hrs.
The test system of another data set is Pseudomonas aeruginosa. The data set is described as follows: Synergistic antibacterial activity against Pseudomonas aeruginosa ATCC 27853 at 2 times MIC incubated for 18 to 24 hrs in presence of 2 times MIC of polymyxin B by broth microdilution assay based checkerboard assay. The note with it: time 18-24 hrs. The format is functional.
The subject of data set [12] is Klebsiella pneumoniae. The data set is described as follows: Antibacterial activity against Klebsiella pneumoniae ATCC 700603 infected in BALB/C mouse assessed as reduction in inflammatory response at 5 to 10 mg/kg, ip by hematoxylin and eosin staining based assay. It is filed as functional, organism-based. The note with it: dose 5-10 mg/kg.
The test system of data set [13] is Klebsiella pneumoniae. As to the kind of experiment: Antibacterial activity against Klebsiella pneumoniae ATCC 700603 infected in BALB/C mouse assessed as reduction in bacterial load in lung at 10 mg/kg, ip measured within 24 hrs by agar plate counting method (reference value: 2.77 x 10^7 CFU/mg). It is filed as functional.
Data set [14] in a line: Stability in BALB/C mouse serum assessed as compound degradation time measured up to 1440 mins by HPLC analysis. It is filed as ADME, cell-free. The note with it: 24 h.
The subject of data set [15] is Staphylococcus aureus. As to the kind of experiment: Disruption of membrane integrity in Staphylococcus aureus ATCC 25923 assessed as pore formation at 1 times MIC incubated for 0.5 to 2 hrs by scanning electron microscopy. The note with it: time 0.5-2 hrs. It is filed as functional, organism-based.
Data set [16] concerns Staphylococcus aureus. The data set is described as follows: Bactericidal activity against Staphylococcus aureus ATCC 25923 at 2MIC measured within 3 hrs by time-kill assay relative to control. It is filed as functional.

Regarding `CC[C@H](C)CCCCC(=O)N[C@@H](CCN)C(=O)N[C@H](C(=O)N[C@@H](CCN)C(=O)N[C@H]1CCNC(=O)[C@H]([C@@H](C)O)NC(=O)[C@H](CCN)NC(=O)[C@H](CCN)NC(=O)[C@H](CC(C)C)NC(=O)[C@@H](Cc2ccccc2)NC(=O)[C@H](CCN)NC1=O)[C@@H](C)O` (X1-[Dab]T[Dab][Dab][Dab][dF]L[Dab][Dab]T; lactam 4-C), the outcome in the data set on Cell membrane [1], in the data set with Klebsiella pneumoniae [2], in the data set with Klebsiella pneumoniae [3], in the data set on Klebsiella pneumoniae [5] and in the data set with Cell membrane [7] was Active. Moreover, the outcome with Klebsiella pneumoniae [4] was inactive. Besides, the Activity result in [6] is “Toxic”.

Consider `NCCCC[C@H](NC(=O)[C@H](CCCCN)NC(=O)[C@H](Cc1c[nH]c2ccccc12)NC(=O)[C@H](CCCCN)NC(=O)[C@H](CCCCN)NC(=O)[C@H](Cc1c[nH]c2ccccc12)NC(=O)[C@H](Cc1c[nH]c2ccccc12)NC(=O)[C@@H](N)CCCCN)C(=O)N[C@@H](Cc1c[nH]c2ccccc12)C(=O)N[C@@H](Cc1c[nH]c2ccccc12)C(N)=O` (H-KWWKKWKKWW-NH2), for which the outcome in the data set with Staphylococcus aureus [8], in the data set on Cell membrane [9], in the data set with Klebsiella pneumoniae [10], in the data set with Klebsiella pneumoniae [11], in the data set with Klebsiella pneumoniae [12] and with Staphylococcus aureus [15] was Active. Also, in the data set with Lipopolysaccharide (LPS), the fold change (FC) is 2. In addition, the FIC with Pseudomonas aeruginosa is on record as 0.5625. In addition, the Activity in the data set on Klebsiella pneumoniae [13] is 3.26 10^3CFU/mg; in the data set on Staphylococcus aureus [16], 100%. The Time in data set [14] came to 11.84 min.
